Laboratory results as given in patent US20240301359A1, “SYSTEM COMPRISING CISPLATIN-RESISTANT XENOGRAFT FOR NASOPHARYNGEAL CARCINOMA AND METHODS THEREOF” (THE UNIVERSITY OF HONG KONG, priority 2023, published 2024).

How the values were obtained:
Format in all cases: in vivo
xeno76 NPC PDX = assay: cisplatin treatment of xeno76 PDX-bearing nude mice
Method: (§1) Parental xeno76 and xeno76-CR-bearing nude mice were randomized into control and treatment groups (n=4). […] The tumor volume was measured and recorded during the whole treatment period, and the tumor growth curves of xeno76 and xeno76-CR are shown in Error! […] Black arrows represent the treatment day. The xeno76 and xeno76-CR nude mice were randomized respectively on day 0 and received the first treatment. Data presented are mean (n=4) with error bars showing SEM. Statistical significance was done using paired two-tailed t-test, *** P<0.001, ns P>0.05. Furthermore, the tumors of xeno76 and xeno76-CR were also weighed and harvested for further investigation (FIG. 2C). Statistical significance was done using the unpaired two-tailed t-test, ** P<0.01, ns P>0.05.

[1] = tested on: xeno76-CR cisplatin-resistant NPC PDX; assay: cisplatin treatment of xeno76-CR PDX-bearing nude mice; details: 3 mg/kg cisplatin weekly i.p., at harvest, ns P>0.05
Method: as §1

[2] = maximum tolerated dose of cisplatin in nude mice; details: weekly i.p.
Description: A protocol for developing cisplatin-resistant PDX model from the NPC PDX models is described. NPC PDX tissues were implanted in nude mice subcutaneously (FIG. 1).

[3] = tested on: xeno76-CR cisplatin-resistant NPC PDX; assay: ixazomib treatment of xeno76-CR-bearing nude mice
Method: (§2) Xeno76-CR-bearing nude mice were randomized into the control and 4 mg/kg ixazomib treatment group (n=4). Referring to FIG. 5A, black arrows represent the treatment day. Data presented are mean (n=4) with error bars showing SEM. Statistical significance was done using one-way ANOVA, **** P<0.0001.
(§3) The images of size and appearance of the xeno76-CR tumor-bearing mice between control and treatment groups on day 21 are shown in FIG. 5B. […] In FIG. 5C and FIG. 5D, data presented are means (n=4) with error bars showing the SEM. Statistical significance was done using the unpaired two-tailed t-test. Black arrows represent the treatment day.

[4] = body weight and side effects in ixazomib-treated nude mice
Method: as §2, §3

xeno76 primary NPC = assay: ixazomib sensitivity of primary NPC PDX xeno76; details: naïve to radio- and chemotherapy, relatively low dosage
xeno113 metastatic NPC = assay: ixazomib sensitivity of metastatic NPC PDX xeno113; details: relatively low dosage

| Compound | tumor growth (tumor volume) vs control (xeno76 NPC PDX; 3 mg/kg cisplatin in saline weekly i.p., n=4, *** P<0.001) | tumor weight vs control (xeno76 NPC PDX; 3 mg/kg cisplatin weekly i.p., at harvest) | tumor weight vs control [1] | maximum tolerated dose [2] | sensitivity to ixazomib ([3]; cisplatin-resistant NPC (xeno76-CR), relatively low dosage, summary statement) | tumor weight at the endpoint of the experiment ([3]; xeno76-CR, 4 mg/kg ixazomib, n=4 mean, control group 0.52 g, * P<0.05) | tumor growth (tumor volume) vs control ([3]; xeno76-CR, 4 mg/kg ixazomib, three-week treatment, n=4, **** P<0.0001) | observable side effects or weight loss ([4]; 4 mg/kg ixazomib, xeno76-CR bearing nude mice) | side effects and body weight loss ([4]; all the tested animals, summary statement) | sensitivity to ixazomib (xeno76 primary NPC) | sensitivity to ixazomib (xeno113 metastatic NPC) |
| --- | --- | --- | --- | --- | --- | --- | --- | --- | --- | --- | --- |
| N.N.[Cl][Pt][Cl] [cisplatin] | significantly inhibited | significantly lighter than the xeno76 control group | no significant differences | 5 mg/kg |  |  |  |  |  |  |  |
| CC(C)C[C@H](NC(=O)CNC(=O)c1cc(Cl)ccc1Cl)B(O)O [ixazomib] |  |  |  |  | sensitive to ixazomib | 0.21 g | effectively inhibited xeno76-CR growth | did not induce any observable side effects or weight loss | no side effects and body weight loss | sensitive to ixazomib | sensitive to ixazomib |
